Laboratory results published in patent US4141991A, “Ferrocene derivatives” (Hoechst Aktiengesellschaft, priority 1976, dated 1979).

Columns and labels:
liver ferritin [1] = experiment: Analysis of the ferritin from rat livers (quantitative determination of ferritin protein and its iron content); type: in vivo; conditions: for Ratio of iron to protein: rat liver ferritin, two successive daily doses corresponding to 52.5 mg Fe/kg; for Ratio of iron to protein / Ferritin-iron / Ferritin-protein: average values from 6 animals; for Ferritin-iron / Ferritin-protein: two successive daily doses corresponding to 52.5 mg Fe/kg (table; text 52.2), 24 hours after 2nd administration
Procedure: 24 hours after the 2nd administration the animals were killed. […] For this, ferritin is isolated from the liver by thermal denaturation, ammonium sulfate fractionation and gel filtration, and the protein is determined by amino acid analysis and the iron content by atom absorption.

liver ferritin [2] = experiment: Histological comparison test of liver ferritin (Berlin-blue reaction); type: in vivo; conditions: 6 male rats and 6 male mice; 2 doses corresponding to 52.2 mg Fe/kg; 24 hours after 2nd administration
Procedure: After oral administration, sideropenia resulting from by-passing the normal regulating mechanism in the intestine for ionic iron, is quickly compensated. Thus, the results of an iron-deficient diet for rats and mice, such as reduced body weight, decrease of hemoglobin, of the hematocrit, of the serum iron and of the number of erythrocytes, is fully compensated by the administration once of a dose of one of the compounds according to the invention corresponding to 2 mg of iron per animal. The compounds according to the invention are resorbed well orally, the excretion of unchanged substance in urine usually being less than 1%. The compounds are distinguished by a distinct nontoxicity, the LD50 of 4-ferrocenoyl-cyclohexene thus amounting to 2000 mg/kg in mice and 3,000 mg/kg in rats. As can be shown by biochemical determination of the ferritin protein and its degree of iron saturation, the compounds are completely metabolised in the liver, that is, the iron is released and incorporated in the storage form that can be used to form hemoglobin, that is in liver ferritin, and in the case of an excess of added substance, in ferritin and in hemosiderin. These discoveries are supported by histological comparison tests, in which the increase of liver ferritin is recognisable in a Berlin-blue reaction in the form of a uniform blue shading of the cytoplasma of the liver cells, and any hemosiderin that may have formed is recognisable in the form of fine blue grains.
The compounds were administered to 6 male rats and 6 male mice on two successive days in individual doses corresponding to an iron content of 52.2 mg Fe per kg of animal. 24 hours after the 2nd administration the animals were killed. […] The quantitative determination of the ferritin protein and its iron content (table) confirm these findings. For this, ferritin is isolated from the liver by thermal denaturation, ammonium sulfate fractionation and gel filtration, and the protein is determined by amino acid analysis and the iron content by atom absorption.

[3] = test system: ability to utilize the iron; conditions: among 2a-d, according to details in the literature; cited from earlier work
rats = experiment: Acute toxicity (LD50) in rats
mice = experiment: Acute toxicity (LD50) in mice

**Q.** What does the source list for “1,1'-di-(3,5,5-trimethyl-hexanoyl)-ferrocene [Example 2b]”?
**A.** Ratio of iron to protein (liver ferritin [1]): 0.26; Ferritin-iron (liver ferritin [1]; rat liver): 148 μg/g tissue; Ferritin-protein (liver ferritin [1]; rat liver): 567 μg/g tissue

**Q.** For “1,1'-di-hexahydrobenzoyl ferrocene [Example 2c]”, which “Ratio of iron to protein” value (liver ferritin [1]) is on record?
**A.** Its value is 0.42.

**Q.** What about the Ferritin-iron (liver ferritin [1]; rat liver) of the same compound?
**A.** Its Ferritin-iron is 94 μg/g tissue.

**Q.** What about the Ferritin-protein (liver ferritin [1]; rat liver) of the same compound?
**A.** The Ferritin-protein was 224 μg/g tissue.

**Q.** And the “histological increase of the liver ferritin” value (liver ferritin [2])?
**A.** The value was “do not cause any histologically recognisable increase of the liver ferritin”.

**Q.** For “1,1'-di-neopentyl ferrocene [Example 2d]”, which “Ratio of iron to protein” value (liver ferritin [1]) is on record?
**A.** The value was 0.38.

**Q.** What about the Ferritin-iron (liver ferritin [1]; rat liver) of the same compound?
**A.** The Ferritin-iron was 61 μg/g tissue.

**Q.** And the Ferritin-protein (liver ferritin [1]; rat liver)?
**A.** Its Ferritin-protein is 130 μg/g tissue.

**Q.** And the “histological increase of the liver ferritin” value (liver ferritin [2])?
**A.** Its value is “do not cause any histologically recognisable increase of the liver ferritin”.

**Q.** What about the “ability to utilize the iron” value [3] of the same compound?
**A.** Its value is “the best, especially regarding its ability to utilize the iron”.

**Q.** Which results are given for `O=C([c-]1cccc1)C1CC=CCC1.[Fe+2].c1cc[cH-]c1` (centres unmarked) [Example 1, 4-Ferrocenoyl-cyclohexene]?
**A.** LD50 (rats): 3,000 mg/kg; LD50 (mice): 2000 mg/kg; Ratio of iron to protein (liver ferritin [1]): 1.19; ferritin protein and its iron content in comparison with the known compounds 2a-d (liver ferritin [1]; rat liver, after administration, from the table): clearly increased more markedly; Ferritin-iron (liver ferritin [1]; rat liver): 1133 μg/g tissue; Ferritin-protein (liver ferritin [1]; rat liver): 950 μg/g tissue; hemosiderin particles, histologically (liver ferritin [2]): individual hemosiderin particles are observed; histological increase of the liver ferritin (liver ferritin [2]): in comparison with 2a and 2b exhibits a substantially greater increase of the liver ferritin

**Q.** Which “Ratio of iron to protein” value (liver ferritin [1]) does the source give for `O=C([c-]1cccc1)C1CCCCC1.[Fe+2].c1cc[cH-]c1` [Example 2a, hexahydrobenzoyl ferrocene] here?
**A.** Its value is 0.43.

**Q.** What about the Ferritin-iron (liver ferritin [1]; rat liver) of the same compound?
**A.** The Ferritin-iron was 209 μg/g tissue.

**Q.** What about the Ferritin-protein (liver ferritin [1]; rat liver) of the same compound?
**A.** Its Ferritin-protein is 475 μg/g tissue.
